Measurements as given in US20040073277A1, “High fluence rate activation of photosensitizers for dermatological applications” (priority 2002, published 2004).
Read-outs that look alike come from different tables or passages of the source.

Assays:
[1] = tested on: photoaged or wrinkled skin; details: following ALA-PDT; cited from earlier work
acne [2] = details: red light from a halogen lamp, 13 J/cm^2; cited from earlier work
acne [3] = details: 20% ALA for 3 hours on the back; broadband lamp 550 to 700 nm, 150 J/cm^2; cited from earlier work
actinic keratoses [4] = details: irradiation 4 hours after ALA, 580 to 740 nm lamp, 20 J/cm^2; cited from earlier work
actinic keratoses [5] = details: cited from earlier work
actinic keratoses [6] = assay: ALA-PDT of lesional skin with pulsed dye laser below the purpura threshold; assay type: in vivo, human
Method: The present invention is generally directed to a method for activation of photodynamic sensitizers in dermatologic application.
The pulsed dye laser was operated below the purpura threshold of the skin at a fluence of about 3.0 to about 7.5 J/cm^2. […] Treatment was performed and successful with and without surface cooling. Surface cooling provided epidermal protection and additional pain reduction.

hair follicles = details: photodynamic injury to hair follicles; cited from earlier work
[7] = 20% ALA for 6 hours, 585 nm, 1.5 milliseconds, 18 J/cm^2
[8] = actinic keratoses, pulsed dye laser 595 nm below purpura threshold

For NCC(=O)CCC(=O)O [ALA, 5-Aminolevulinic acid], the “photoaged or wrinkled skin” value [1] is listed as “improve”, the side effects (acne [2]) is listed as “edematous erythema, epidermal exfoliation and irritation lasting several days, and pigmentation changes” and the therapeutic response (acne [2]) is listed as “excellent therapeutic response”. The “time for treated skin to return to normal” value (acne [2]) was “one month”, the acne response (acne [3]) was “improved” and the side effects (acne [3]) was “erythema, edema, exfoliation, and long-lasting hyperpigmentation”. The side effects (actinic keratoses [4]) was “erythema and skin erosions occurred”, the “efficacy of pulsed dye laser versus conventional lamp” value (actinic keratoses [5]; [7]) was “similar” and the “pain with pulsed dye laser versus conventional lamp” value (actinic keratoses [5]; [7]) was “significantly lower”. For the same compound, the “duration of purpura after treatment” value (actinic keratoses [5]; pulsed dye laser only, 585 nm, 1.5 milliseconds, 18 J/cm^2) was “up to two weeks”, the “duration of erythema and crusting after treatment” value (actinic keratoses [5]; similar for pulsed dye laser and conventional lamp) was “up to two weeks” and the “treatment outcome of the lesion” value (actinic keratoses [6]; ALA applied to lesional skin, pulsed dye laser 595 nm, pulse duration 3 to 40 milliseconds, fluence about 3.0 to about 7.5 J/cm^2) was “successfully treated”. The “pain, crusting and erosions of treated lesions” value (actinic keratoses [6]; [8]) was “reduction in pain and in crusting and erosions”, the purpura (actinic keratoses [6]; [8]) was “without purpura” and the “efficacy compared with conventional ALA-PDT” value (actinic keratoses [6]; pulsed light source) was “efficacy equivalent to conventional ALA-PDT”. The “side effects compared with conventional ALA-PDT” value (actinic keratoses [6]; pulsed light source) was “fewer and minimal side effects” and the “excessive or unwanted hair” value (hair follicles) was “reduced”.
